Assay results from US8435998B2, “Crystalline form of posaconazole” (Sandoz AG, priority 2008, dated 2013).
Converted amounts (≈) assume the structure as drawn. “And” between values parts separate entries of the source, which are not always exact repeats. Equal values may be shown once.

Legend:
[1] = on storage as micronised powder, during manufacture or as formulated in the finished product; cited from earlier work
[2] = Median particle size by laser diffraction (Malvern Mastersizer 2000S) in oral suspension; type: physicochemical; details: for Median particle size (d (0.5)-value): in suspension, laser diffraction after 5 min ultrasonic treatment
Excerpt: The median particle size of crystalline form IV of posaconazole when used as such, i.e. in a non-micronized form for preparing a pharmaceutical composition in the form of a liquid suspension or dispersion as herein described, has been determined in samples taken from such suspension. Said median particle size is typically about 0.1-0.2 μm±0.05 μm, e.g. 0.14-0.17 μm, such as 0.15 μm, when measured with known laser diffraction methods, e.g. determination of the particle size distribution (Malvern) according to the US-Pharmacopeia (USP) 32 (2009) method <429> and to the European Pharmacopeia (EP) 6 (2008) method 2.9.31. based on the diffraction of laser by particles within the measurement volume (for details see Example 8). In the present invention, the term median particle size is understood to mean the d(0.5) value as determined according to the herein described laser diffraction methods.
Crystalline form IV as obtained by Example 4 was used to prepare 25 ml of a suspension as follows:
The suspension was prepared as follows: 40% of the final amount of Polysorbat 80 and 40% of the final amount of simethicone were mixed and dissolved and/or dispersed in about 12% of the final amount of purified water and homogenized with Ultra Turrax (30 seconds; 27,000 rpm). Subsequently, 1 g of the form IV of posaconazole, i.e. in its non-micronized form, were suspended or dispersed in this mixture under homogenization by Ultra Turrax (27,000 rpm, 2 minutes). The remaining 60% of Polysorbat 80 and of simethicone and 32% of the final amount of the purified water were added and mixed followed by the addition of sodium benzoate, sodium citrate dihydrate and citric acid monohydrate. After further mixing, xanthan gum was added to the mixture under stirring, followed by a 30 minutes phase of hydratization without mixing. Subsequently, glycerol and liquid glucose as well as titanium dioxide and the remaining portion of 56% of the final amount of purified water were added under mixing with a suitable homogenizer until a uniform suspension was obtained.
25 ml of a similar suspension were prepared analogously using non-micronized crystalline form I of posaconazole which was prepared by the method of example 3 described in U.S. Pat. No. 6,958,337.
Additionally, NOXAFIL® oral suspension (40 mg/ml) as commercially available from Medizone Germany GMBH (US product) was used to determine the particle size distribution of micronized form I of posaconazole which was contained in this known suspension.
The particle size distribution (Malvern) was measured according to the USP 32 (2009) method <429> and EP 6 (2008) method 2.9.31. based on the diffraction of laser by particles using a Mastersizer 2000S liquid dispersion system. The particle size measurement was started after ultrasonic treatment of the sample for 5 min.

[3] = Specific surface area, BET method with nitrogen (NOVA 2000); type: physicochemical; details: for Specific Surface Area: BET, nitrogen, 77° K
Excerpt: The specific surface area of crystalline form IV of posaconazole as such, i.e. as obtained according to the herein described methods, is typically about 10-25 m^2/g±0.5 m^2/g, e.g. about 13-20 m^2/g±0.5 m^2/g, such as about 15-17 m^2/g±0.5 m^2/g, as measured according to the known Multi-Point-BET-method as herein described and as shown in Example 7. This specific surface area of crystalline form IV of posaconazole is about 10-fold larger when compared to that of known crystalline form I. It is known that the specific surface area between a solid and a liquid phase has a direct impact on the dissolution rate and thus on the bioavailability of the pharmaceutical ingredient as described e.g. by the equation by Nernst and Brunner as found in W. Nernst, Z. Phys. Chem. 47 (1904), pp. 52-55. […] Thus, crystalline form IV of posaconazole may advantageously be used as such, i.e. without being micronized, for preparing a pharmaceutical composition, e.g. a liquid suspension or dispersion as herein described—in contrast to known posaconazole forms which are micronized for use in such suspensions as e.g. described in WO 02/80678.
Specific surface area measurement was performed with the equipment NOVA 2000 as commercially available from Quantachrome Instruments using the BET method and Nitrogen as the absorbed gas at 77° K (i.e. −196.15° C.) as described e.g. by Medema J, Campagne A.: A Simple Method to Determine Cumulative Surface-Area Distributions of Porous Solids; Journal of Catalysis, Volume 8, Issue 2, pp. 120, 1967. Crystalline form IV of posaconazole was prepared according to Example 4. Crystalline form I was prepared by the method of example 3 described in U.S. Pat. No. 6,958,337.

[4] = Dissolution of suspensions, USP 32 method <711>, apparatus II (Paddle); type: physicochemical; details: 25 rpm, 0.3% SLS aqueous solution
Procedure: The liquid suspensions containing non-micronized crystalline form IV or non-micronized crystalline form I as well as the NOXAFIL® oral suspension containing micronized crystalline form I described in Example 8 were tested for their dissolution behaviour.
Dissolution was tested according to USP 32 (2009) method <711> (USP apparatus II (Paddle); 25 rpm; dissolution medium: 0.3% SLS aqueous solution). Posaconazole concentrations were determined with an online photometer (UV absorption at 260 nm).
The results are shown in Table 4 below wherein values are the amount of posaconazole dissolved in %, and in more detail in FIG. 6 wherein the amount of posaconazole dissolved in % is plotted versus time in minutes.

[5] = Storage stability of the solid form (degradation or polymorphic conversion by HPLC, IR or XRPD); type: physicochemical
Procedure: Crystalline form IV is stable under storage conditions which are typical for pharmaceutical compositions and is thus suitable for the preparation of medicaments. Typical storage conditions are, for example, storage at ambient temperature, such as about 20° C. to about 30° C., for several months (e.g., for at least 5 months, preferably at least 12 months, more preferably at least 24 months) in a closed vial.
In experiments crystalline form IV was stable during storage for 63 days at ambient temperature. Even when stored for 4 weeks at 40° C., crystalline form IV was stable.
In this context, “stable” means that neither degradation nor polymorphic conversion to another polymorphic form of crystalline form IV can be detected, for example by HPLC, IR or XRPD analysis as defined herein.

[6] = Stability of form IV in an aqueous pharmaceutical composition (XRPD); type: physicochemical; details: aqueous pharmaceutical suspension stirred at ambient temperature for 1 week
Procedure: The stability of form IV in an aqueous pharmaceutical composition was investigated. 240 mg form IV were suspended in a 4 ml aqueous suspension consisting of a mixture of 19 mg sodium benzoate, 3 mg citric acid, 19 mg xanthan gum, 60 mg Polysorbat 80, 600 mg glycerine and 2 g liquid glucose. The suspension was stirred at ambient temperature for 1 week.

[7] = Polymorphic stability suspended in water and stirred; type: physicochemical; details: suspended in water and stirred for 1 week at ambient temperature
[8] = Moisture sorption isotherm (SPS-11); type: physicochemical; details: 90% relative humidity, 25° C.
Procedure: The moisture sorption isotherm was recorded with a SPS-11 moisture sorption analyzer (MD Mess-technik, Ulm, D). The measurement cycle was started at 0% relative humidity (RH), increased in 10% steps up to 90% RH and in a 5% step up to 95% RH. The equilibrium condition for each step was set to a constant mass±0.003% over 49 min. The temperature was 25±0.1° C.
The water content of the obtained crystalline form IV was 2.43%. […] The maximum water content peaks at 3.7% at 90% relative humidity, which corresponds to a water mol ratio of 1.5 (FIG. 4).

[9] = Equilibrium solubility method in water; type: physicochemical
Procedure: The solubility of crystalline form IV was determined by the equilibrium solubility method. A saturated solution of form IV, obtained by stirring 250 mg form IV in 6 ml water overnight, was prepared. The sample was filtered through a 0.45 μm membrane filter and the concentration of form IV in the filtrate was measured using a Perkin Elmer Lambda 35 UV/VIS spectrophotometer (λ=260 nm).

[10] = WO 99/18097; cited from earlier work
[11] = cited from earlier work
[12] = listed as crystalline form IV of posaconazole

Question: What does the source list for CC[C@@H]([C@H](C)O)n1ncn(-c2ccc(N3CCN(c4ccc(OC[C@@H]5CO[C@@](Cn6cncn6)(c6ccc(F)cc6F)C5)cc4)CC3)cc2)c1=O [Crystalline Form I, posaconazole]?
Answer: polymorphic transition [1]: no evidence of polymorphic transition; Median particle size (d (0.5)-value) ([2]; listed as Crystalline Form I (non-micronized)): 12.88 μm; Specific Surface Area ([3]; listed as Crystalline Form I of posaconazole): 1.5 m^2/g and 1.6 m^2/g; amount of posaconazole dissolved ([4]; 3 min, listed as Crystalline Form I non-micronized): 29%; amount of posaconazole dissolved ([4]; 25 min, listed as Crystalline Form I non-micronized): 61%

Question: What does the source list for CC[C@@H]([C@H](C)O)n1ncn(-c2ccc(N3CCN(c4ccc(OC[C@@H]5CO[C@@](Cn6cncn6)(c6ccc(F)cc6F)C5)cc4)CC3)cc2)c1=O [Crystalline Form IV, 2,5-anhydro-1,3,4-trideoxy-2-C-(2,4-difluorophenyl)-4-[[4-[4-[4-[1-[(1S,2S)-1-ethyl-2-hydroxypropyl]-1,5-dihydro-5-oxo-4H-1,2,4-triazol-4-yl]phenyl]-1-piperazinyl]phenoxy]methyl]-1-(1H-1,2,4-triazol-1-yl)-D-threo-pentitol]?
Answer: stability during storage ([5]; 4 weeks at 40° C.): stable; stability during storage ([5]; 63 days at ambient temperature): stable; Median particle size (d (0.5)-value) ([2]; listed as Crystalline Form IV (non-micronized)): 0.15 μm; Median particle size (d (0.5)-value) [2, 12]: 0.1-0.2 μm; median particle size relative to micronized form I ([2]; smaller than micronized form I): about 10 fold; median particle size relative to non-micronized form I ([2]; smaller than non-micronized form I): about 90 fold; Specific Surface Area ([3]; listed as Crystalline Form IV of posaconazole): 15.5 m^2/g and 15.7 m^2/g; Specific Surface Area [3, 12]: 10-25 m^2/g; specific surface area relative to crystalline form I ([3]; larger than form I): about 10 fold; amount of posaconazole dissolved ([4]; 3 min, listed as Crystalline Form IV non-micronized): 82%; amount of posaconazole dissolved ([4]; 25 min, listed as Crystalline Form IV non-micronized): 100%; stability in aqueous suspension (XRPD) [6]: remained stable; transformation into another form [7]: not susceptible to transformation into another form; maximum water content (moisture sorption) [8]: 3.7%; water mol ratio at maximum water content [8]: 1.5; solubility ([9]; thermodynamic from solid, saturated solution in water, stirred overnight, 0.45 μm filtered, UV 260 nm): 2.1 µg/mL (≈ 3 µM); solubility compared with form I ([9]; water, equilibrium solubility): more than two times higher

Question: Which “stability under the conditions investigated” value [10] does the source give for CC[C@@H]([C@H](C)O)n1ncn(-c2ccc(N3CCN(c4ccc(OC[C@@H]5CO[C@@](Cn6cncn6)(c6ccc(F)cc6F)C5)cc4)CC3)cc2)c1=O [Crystalline form II, posaconazole] here?
Answer: The value was “unstable”.

Question: Which “log P” value [11] does the source give for CC[C@@H]([C@H](C)O)n1ncn(-c2ccc(N3CCN(c4ccc(OC[C@@H]5CO[C@@](Cn6cncn6)(c6ccc(F)cc6F)C5)cc4)CC3)cc2)c1=O [posaconazole, 2,5-anhydro-1,3,4-trideoxy-2-C-(2,4-difluorophenyl)-4-[[4-[4-[4-[1-[(1S,2S)-1-ethyl-2-hydroxypropyl]-1,5-dihydro-5-oxo-4H-1,2,4-triazol-4-yl]phenyl]-1-piperazinyl]phenoxy]methyl]-1-(1H-1,2,4-triazol-1-yl)-D-threo-pentitol] here?
Answer: The value was > 3.
